± gives the expanded uncertainty stated by the source.
Settings: Liquid, Ebulliometric method (Recirculating still)

Row | vapor or sublimation pressure (288.15 K) [kPa] | vapor or sublimation pressure (298.15 K) [kPa] | vapor or sublimation pressure (308.15 K) [kPa] | SMILES
1 | 1.706 ± 0.04 | 3.172 ± 0.047 | 5.556 ± 0.055 | O [water]
2 | 2.703 ± 0.053 | 4.975 ± 0.061 | 8.119 ± 0.068 | C1COCCO1 [1,4-dioxane]
